We go through 8 compounds from paper PMC5442318, “Hundreds of dual-stage antimalarial molecules discovered by a functional gametocyte screen” (Nature Communications, 2017).

Like-named read-outs stand apart in the source and are kept apart here. Some results are limits rather than exact numbers.

For orientation: inhibition means the percentage by which the read-out fell short of the control.

For data set [1], the system named is P. falciparum stage V female gametocytes. The data set can be described thus: P. falciparum female gametocyte activation assay (Pf FGAA), 24 h or 48 h preincubation, Pfs25 expression readout. The format is cell-based, Plasmodium falciparum NF54. Also noted: key to Biological profile: 49 compounds that were only active with a 48 h exposure (designated as slow-acting); 29 compounds additionally showed activity with only 24 h exposure (designated as fast-acting); when the compounds were added 30 min after triggering gametocyte activation, 12 compounds prevented cell surface expression of Pfs25 (designated as gamete-targeting). Particulars: for Pf FGAA classification: SLOW / FAST / GAMETE from activity at 48h, 24h, 0h incubation. A digest of the protocol: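 Female activation, triggered by xanthurenic acid and cooling, was scored by imaging Cy3-labelled anti-Pfs25 female gametes after 24 h at 26 °C. Beforehand, purified NF54 stage V gametocytes had been incubated with compound for either 24 h or 48 h (37 °C, 3% O2). Values are pIC50 from full-curve regression.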

The test system of data set [2] is P. falciparum female gametes. Briefly: Pf FGAA with compounds added 30 min after triggering gametocyte activation (gamete-targeting). The format is cell-based, Plasmodium falciparum NF54. Particulars: 0h incubation time.
For data set [3], the system named is P. falciparum stages IV–V gametocytes. Briefly: Gametocytocidal ATP-depletion assay (gametocyte ATP bioluminescence). The format is cell-based, Plasmodium falciparum. Put shortly: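 Read-out is luciferase luminescence of parasite ATP (BacTiter-Glo), standing in for viability. Double-purified mature stage IV–V gametocytes, 12,500 per well, were exposed 48 h at 37 °C in low-O2 gas; screening concentration 2 μM.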

The test system of the next data set is HepG2 cells. The data set can be described thus: HepG2 cytotoxicity assay. In kind it is cell-based. Put shortly:
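Once incubation ended, the HepG2 plates were warmed to room temperature for 30 min alongside the CellTiter-Glo reagent. Luminescent signal was developed by reagent addition and stabilized for 10 min before plate reading.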

For data set [4], the system named is P. falciparum asexual blood stages. Conditions: cited from earlier work; for IC50: read-out: Pf Asexual blood stages XC50.
Setting [5] is: 24h incubation time, read-out: Pf FGAA IC50 (µM) 24h.
[6] abbreviates: mean, read-out: Gametocytes mean Pf FGAA IC50.
[7] abbreviates: TCAMS data, ref 1 (Gamo et al., 2010).
The mark [8] stands for this setting: TCAMS data, ref 1 (Gamo, F. J. et al., Nature 465, 305-310, 2010).
Where [9] appears, read: P. falciparum female gametocytes, mean, read-out: Gametocytes mean Pf FGAA IC50.
Where [10] appears, read: TCAMS asexual blood stage data, ref 1 (Gamo, F. J. et al., Nature 465, 305-310, 2010).

For `CN1CCN(Cc2ccc(OCc3cccc(COc4ccc(CN5CCN(C)CC5)cc4I)c3)c(I)c2)CC1.Cl` [TCMDC-137239], the IC50 is 6.48 µM in data set [1] (setting [5]), 1.85 µM in data set [1] (setting [6]), 15.1 µM in data set [2] and 1010 nM in data set [4] (setting [7]). Besides, the “Pf FGAA classification” value in data set [1] was “SLOW”. The “Gametocytes mean ATP inhibition at 2µM (%)” value in data set [3] is reported as -13.43%. For the same compound, the “HepG2 cells mean TOX50” value in the data set on HepG2 cells came to 5.01 µM. Besides, in data set [4] (setting [8]), the “Pf Asexual stages XC50” value is 1010 nM.
With `COc1cc2nc(-c3ccc(Br)cc3)cc(N)c2cc1OC` [TCMDC-138933], the Biological profile entry in data set [1] (Pf FGAA with 48 h, 24 h or post-activation addition, active = IC50 below 2 μM) was “slow-acting”. The IC50 in data set [1] (Plasmodium falciparum, 24h incubation time, read-out: Pf FGAA IC50 (µM) 24h) was 3.91 µM; in data set [1] (Plasmodium falciparum, stage V gametocytes, 48 h exposure, read-out: PfFGAA IC50) it was 0.76 µM; in data set [2] (Plasmodium falciparum), 8.17 µM; in data set [4] (setting [7]) it was 170 nM. Moreover, the “Pf FGAA classification” value in data set [1] is “SLOW”. Testing at 2 µM in data set [3] (Plasmodium falciparum, mean) gave an inhibition of 0.89%. In addition, in the data set with HepG2 cells (HepG2 TOX50 vs Pf FGAA IC50), the Selectivity ratio amounted to 6.53. Moreover, the “selectivity ratio (selectivity index)” value with HepG2 cells (HepG2 Tox50 vs Pf FGAA IC50) is given as below 10. For the same compound, the “HepG2 cells mean TOX50” value in the data set with HepG2 cells was 4.95 µM. Moreover, the “Pf Asexual stages XC50” value in data set [4] (setting [8]) was 170 nM.
With `CC(C)(CN)c1nc(-c2ccc(Br)c(O)c2)c(-c2ccncc2)[nH]1.Cl` [TCMDC-140680], the IC50 in data set [1] (setting [5]) is 0.79 µM; in data set [1] (setting [6]), 0.84 µM; in data set [2] it was 0.49 µM; in data set [4] (setting [7]), 960 nM. Besides, the “Pf FGAA classification” value in data set [1] is “GAMETE”. The “Gametocytes mean ATP inhibition at 2µM (%)” value in data set [3] is listed as -3.29%. Moreover, the “HepG2 cells mean TOX50” value in the data set on HepG2 cells is recorded as 45.82 µM. For the same compound, the “Pf Asexual stages XC50” value in data set [4] (setting [8]) was 390 nM.
Consider `Clc1ccc(-c2csc3ncnc(Cl)c23)cc1` [TCMDC-123811], for which the IC50 was 3.25 µM in data set [1] (setting [5]), 1.57 µM in data set [1] (setting [9]), above 20 µM in data set [2] and 460 nM in data set [4] (setting [10]). Also, in data set [1], the “Pf FGAA classification” value is “SLOW”. Besides, the “Gametocytes mean ATP inhibition at 2µM” value in data set [3] was -1.98%. The “HepG2 cells mean TOX50” value in the data set with HepG2 cells (HepG2 cells) was found to be 94.46 µM. In addition, the “Pf Asexual stages XC50” value in data set [4] (setting [8]) is 460 nM.
As to `COc1cc2nc(Nc3ccc4c(ccn4Cc4ccccc4)c3)nc(Nc3ccc4c(ccn4Cc4ccccc4)c3)c2cc1OC` [TCMDC-138237], the IC50 in data set [1] (setting [5]) is 5.44 µM; in data set [1] (setting [6]) it was 1.58 µM; in data set [2] it was above 20 µM; in data set [4] (setting [7]) it was 650 nM. Moreover, the “Pf FGAA classification” value in data set [1] is “SLOW”. Further, the “Gametocytes mean ATP inhibition at 2µM (%)” value in data set [3] was determined as 12.64%. In the data set with HepG2 cells, the “HepG2 cells mean TOX50” value amounted to 14.13 µM. Besides, the “Pf Asexual stages XC50” value in data set [4] (setting [8]) is 650 nM.
Turning to `CC(C)(C)c1ccc(CNCCOc2ccc(Nc3nnc(-c4ccc(-c5ncc[nH]5)cc4)o3)c3ccccc23)cc1.O=C(O)C(F)(F)F` [TCMDC-138667], the IC50 in data set [1] (setting [5]) is 3.03 µM; in data set [1] (setting [6]) it was 0.62 µM; in data set [2], 13.2 µM; in data set [4] (setting [7]), 140 nM. For the same compound, in data set [1], the “Pf FGAA classification” value is “SLOW”. In addition, the “Gametocytes mean ATP inhibition at 2µM (%)” value in data set [3] is reported as -11.45%. The “HepG2 cells mean TOX50” value in the data set on HepG2 cells is on record as 5.96 µM. The “Pf Asexual stages XC50” value in data set [4] (setting [8]) is 140 nM.
With `CCc1cc2c(Sc3nnc(N)s3)ncnc2s1` [TCMDC-123993], the IC50 in data set [1] (setting [5]) is 0.77 µM; in data set [1] (setting [9]), 0.73 µM; in data set [2], above 20 µM; in data set [4] (setting [10]) it was 660 nM. Moreover, in data set [1], the “Pf FGAA classification” value is on record as “FAST”. Besides, the “Gametocytes mean ATP inhibition at 2µM” value in data set [3] is reported as 23.86%. The “HepG2 cells mean TOX50” value with HepG2 cells (HepG2 cells) was 32.30 µM. Moreover, the “Pf Asexual stages XC50” value in data set [4] (setting [8]) is 660 nM.
As to `O=C(Nc1nc(-c2ccccn2)cs1)c1ccc(S(=O)(=O)N2CCc3ccccc32)cc1` [TCMDC-125432], the IC50 in data set [1] (setting [5]) was 0.7 µM; in data set [1] (setting [9]), 1.07 µM; in data set [2] it was above 20 µM; in data set [4] (setting [10]), 830 nM. Moreover, the “Pf FGAA classification” value in data set [1] is “FAST”. Besides, the “Gametocytes mean ATP inhibition at 2µM” value in data set [3] was -8.57%. Besides, the “HepG2 cells mean TOX50” value in the data set on HepG2 cells (HepG2 cells) came to 29.22 µM. Further, the “Pf Asexual stages XC50” value in data set [4] (setting [8]) is 830 nM.
